# Experimental data published in patent publication US8058243B2, “Method for treating a brain cancer with ifenprodil” (HSC Research and Development Limited Partnership, priority 2006, dated 2011).
# Structures can show the parent of a compound that is named as a salt. Where two headings read alike, the source gives them in different places.
# Tested on: murine neural precursor cells (neurosphere cultures)
# Assay: HTS of LOPAC library against secondary neurosphere cultures, MTT proliferation assay at 3 μM, day 7 (z score, P value)
# Format: cell-based, mouse
# [1] = LOPAC library screen, 3 μM, MTT, secondary neurosphere cultures, day 7
# [2] = LOPAC screen, neurosphere MTT proliferation, 3 μM, day 7
# [3] = yes/no: significantly inhibited neurosphere proliferation (P<0.01) in primary screen
# [4] = LOPAC library screen, 3 μM, MTT, neurosphere cultures
# [5] = primary LOPAC screen, 3 μM, MTT, neurosphere proliferation
# [6] = yes/no: significantly inhibited neurosphere proliferation in the primary screen
# [7] = LOPAC primary screen, neurosphere MTT proliferation, 3 μM, day 7
# [8] = yes/no: significantly inhibited neurosphere proliferation (P<0.01) in the primary screen
# [9] = yes/no: significantly inhibited neurosphere proliferation in primary screen
# [10] = yes = significantly inhibited neurosphere proliferation (P<0.01) in the primary screen
# [11] = LOPAC library screen at 3 μM, MTT, secondary neurosphere cultures, screened in singlets
# [12] = LOPAC library screen at 3 μM, secondary neurosphere cultures, MTT
compound,measurement,setting,value
CC(=O)OCC(=O)[C@@]1(O)CC[C@H]2[C@@H]3CCC4=CC(=O)CC[C@]4(C)[C@H]3C(=O)C[C@@]21C [Cortisone 21-acetate],Z Score,[1],−2.218
same,Z score,[2],−2.218
same,Activity,[3],no
Br.CCCN(CCC)C1CCc2cccc(O)c2C1 (centres unmarked) [(B1)-8-Hydroxy-DPAT hydrobromide],Z Score,,0.6561
S-(−)-Carbidopa,Z Score,[1],−2.314
same,Z score,[2],−2.314
same,Activity,[3],no
NCCS(=O)(=O)O [Taurine],Z Score,[4],0.5328
same,Z score,[5],0.533
same,Activity,[6],no
COC(=O)[C@@H]1[C@H]2C[C@H]3c4[nH]c5ccccc5c4CCN3C[C@@H]2CC[C@@H]1O [Yohimbine hydrochloride],Z Score,"168 h, 3 µM",−1.656
same,Z score,"168 h, 3 µM",−1.656
same,Activity,[6],no
COc1ccc2c(c1OC)C(=O)O[C@@H]2[C@H]1c2c(cc3c(c2OC)OCO3)CCN1C.Cl [Noscapine hydrchloride],Z Score,[1],−2.455
same,Z score,[7],−2.455
same,Activity,[8],yes
C1CNCCN1.COc1cc(C(O)CO)ccc1O.COc1cc(C(O)CO)ccc1O (racemic) [MHPG piperazine],Z Score,[4],0.05276
same,Z score,[7],0.053
same,Activity,[3],no
O=C(O)CCCCCCCC(=O)O [Azelaic acid],Z Score,[4],0.1057
same,Z score,[7],0.106
same,Activity,[9],no
O=C(O)c1cc[c]([Hg][Cl])cc1 [4-Chloromercuribenzoic acid],Z Score,,−0.03193
same,Z score,[2],−0.032
same,Activity,[3],no
COc1cc(NS(C)(=O)=O)ccc1Nc1c2ccccc2nc2ccccc12 [Amsacrine hydrochloride],Z Score,[1],−11.27
same,Z score,[7],−11.274
same,Activity,[10],yes
O=C1NCN(c2ccccc2)C12CCN(CCCC(c1ccc(F)cc1)c1ccc(F)cc1)CC2 [Fluspirilene],Activity,,no
same,Z Score,[11],1.589
same,Z score,[7],1.589
O=[N+]([O-])c1ccc(CSc2ncnc3c2ncn3[C@@H]2O[C@H](CO)[C@@H](O)[C@H]2O)cc1 [S-(4-Nitrobenzyl)-6-thioinosine],Z Score,"168 h, 3 µM",−0.4271
same,Z score,"168 h, 3 µM",−0.427
same,Activity,[10],no
CCCCCCCC/C=C\CCCCCCCC(=O)NCCc1ccc(O)c(O)c1 [N-Oleoyldopamine],Z Score,"168 h, 3 µM",0.4633
same,Z score,"168 h, 3 µM",0.463
same,Activity,[9],no
(+)-Nicotine (+)-di-p-toluoyl tartrate,Activity,,no
same,Z Score,,−2.233
same,Z score,,−2.233
N=C(N)N1CCc2ccccc2C1 [Debrisoquin sulfate],Z Score,[12],−0.3034
same,Z score,[2],−0.303
same,Activity,[3],no
Cc1cc(C)c(/C=C2\C(=O)Nc3ccccc32)[nH]1 [SU 5416],Z Score,,−0.6622
same,Z score,[7],−0.662
same,Activity,[9],no
CN(C)CCC(c1ccc(Br)cc1)c1ccccn1.O=C(O)/C=C\C(=O)O (racemic) [(±)-Brompheniramine maleate],Z score,[7],−3.530
same,Activity,[8],yes
"CCCc1c(OCCCOc2ccc(OCC(=O)O)cc2)ccc(C(C)=O)c1O [L-165,041]",Z Score,,0.3062
same,Z score,[7],0.306
same,Activity,[3],no
COc1cc2ncnc(Nc3cccc(Cl)c3)c2cc1OC [Tyrphostin AG 1478],Z Score,[11],1.87
same,Z score,[7],1.870
same,Activity,[8],no
CC1=C(/C=C/C(C)=C/C=C/C(C)=C/C=C/C=C(C)/C=C/C=C(C)/C=C/C2=C(C)C(=O)[C@@H](O)CC2(C)C)C(C)(C)C[C@H](O)C1=O [Astaxanthin],Z Score,"168 h, 3 µM",1.571
same,Z score,"168 h, 3 µM",1.571
same,Activity,[8],no
CC(C(=O)O)c1ccc(CC2CCCC2=O)cc1 (centres unmarked) [loxoprofen],Z Score,[12],−0.8833
same,Z score,[7],−0.883
same,Activity,[3],no
Br.CCCN(CCC)[C@@H]1CCc2ccc(O)cc2C1 [R-(+)-7-Hydroxy-DPAT hydrobromide],Z Score,,−2.59
same,Z score,[7],−2.590
same,Activity,[8],yes
CC1CCCC=CC2CC(O)CC2C(O)C=CC(=O)O1 (centres unmarked),Z Score,,−11.27
same,Z score,[7],−11.274
same,Activity,[10],yes
CCCN1CCC[C@@H](c2cccc(O)c2)C1.Cl [S(−)-3PPP hydrochloride],Z Score,,−0.4205
same,Z score,[7],−0.421
same,Activity,[9],no
COc1ccc2c(c1)c(CC(=O)N1CCOCC1)c(C)n2C(=O)c1ccc(Cl)cc1 [Indomethacin morpholinylamide],Z Score,"168 h, 3 µM",−3.398
same,Z score,"168 h, 3 µM",−3.398
same,Activity,[8],yes
Cl.NCCc1c[nH]c2ccccc12 [Tryptamine hydrochloride],Z Score,,1.245
same,Z score,[7],1.245
same,Activity,[9],no
Cl.Cl.Clc1cccc(N2CCNCC2)c1 [1-(3-Chlorophenyl)piperazine dihydrochloride],Z score,[2],0.952
same,Activity,[3],no
NC(Cc1ccc(Cl)cc1)C(=O)O (racemic) [(±)-p-Chlorophenylalanine],Z score,[2],−0.247
same,Activity,[3],no
CC(C)NCC(O)COc1cccc2[nH]ccc12 (stereo not drawn) [S(−)-Pindolol],Z score,[7],−1.122
same,Z score,[2],−0.965
same,Activity,[3],no
same,Activity,[9],no
N[C@@H](CC(=O)O)C(=O)O [L-Aspartic acid],Activity,,no
same,Z Score,"168 h, 3 µM",0.1632
same,Z score,"168 h, 3 µM",0.163
Cc1cc(NC(=O)Nc2ccc3c(ccn3C)c2)sn1 [SB 204741],Z Score,,−2.299
same,Z score,[2],−2.299
same,Activity,[3],no
CC(COc1ccc(/C=C/c2ccccc2)cc1)[N+](C)(C)C (centres unmarked),Z score,[7],−11.127
same,Activity,[8],yes
O=C1N(c2ccccc2)c2ccccc2C1(Cc1ccncc1)Cc1ccncc1 [Linopirdine],Z Score,[12],−0.5525
same,Z score,[7],−0.553
same,Activity,[10],no
CN1CCN(CC(=O)N2c3ccccc3C(=O)Nc3cccnc32)CC1 [Pirenzepine dihydrochloride],Z score,"168 h, 3 µM",−0.545
same,Activity,[9],no
Cc1c(OCC(F)(F)F)ccnc1C[S+]([O-])c1nc2ccccc2[nH]1 (centres unmarked) [Lansoprazole],Z Score,[4],−0.0336
same,Z score,[7],−0.034
same,Activity,[3],no
CC(N)c1cccc(Cl)c1Cl.Cl (centres unmarked),Z Score,,−2.251
CC(=O)[C@@]1(O)CC[C@H]2[C@@H]3CCC4=CC(=O)CC[C@]4(C)[C@H]3CC[C@@]21C [17alpha-hydroxyprogesterone],Z Score,,−0.5783
same,Z score,[7],−0.578
same,Activity,[3],no
"C[C@H](Cc1ccc2c(c1)OC(C(=O)[O-])(C(=O)[O-])O2)NC[C@H](O)c1cccc(Cl)c1.[Na+].[Na+] [CL 316,243]",Z score,[2],0.621
same,Activity,[3],no
NC(CP(=O)(O)O)C(=O)O (centres unmarked) [(B1)-2-Amino-3-phosphonopropionic acid],Z Score,,1.25
O.O.O=c1c(O)c(-c2ccc(O)c(O)c2)oc2cc(O)cc(O)c12 [Quercetin dihydrate],Z Score,,−2.302
same,Z score,[7],−2.302
same,Activity,[9],no
C[C@](N)(CCP(=O)(O)O)C(=O)O.Cl [(S)-MAP4 hydrochloride],Z Score,,−0.5525
same,Z score,[7],−0.553
same,Activity,[10],no
N[C@@H](Cc1ccc(N(CCCl)CCCl)cc1)C(=O)O [Melphalan],Z Score,,−3.907
same,Z score,[7],−3.907
same,Activity,[8],yes
"O=c1oc(Cl)c(Cl)c2ccccc12 [3,4-Dichloroisocoumarin]",Z Score,"168 h, 3 µM",−1.12
same,Z score,"168 h, 3 µM",−1.120
same,Activity,[3],no
CN(C(=O)CCCOc1ccc2[nH]c(=O)ccc2c1)C1CCCCC1 [Cilostamide],Z Score,[4],0.1756
same,Z score,[2],0.176
same,Activity,[3],no
NC12CC3CC(CC(C3)C1)C2 [Amantadine hydrochloride],Z Score,[12],−0.6531
same,Z score,[5],−0.653
same,Activity,[6],no
OC(CN1CCN(c2cccc(Cl)c2)CC1)C(c1ccccc1)c1ccccc1 (centres unmarked) [BRL 15572],Z Score,,0.3117
same,Z score,[7],0.312
same,Activity,[8],no
Cc1nc2c(OCc3ccccc3)cccn2c1CC#N [SCH-28080],Z Score,,2.107
same,Z score,[2],2.107
same,Activity,[3],no
CC(CCc1ccccc1)NC(C)C(O)c1ccc(O)cc1 (centres unmarked) [Nylidrin hydrochloride],Z Score,[1],−1.375
same,Z score,[7],−1.375
same,Activity,[10],no
COc1ccc(CCCOC(Cn2ccnc2)c2ccc(OC)cc2)cc1 (centres unmarked) [SKF 96365],Z Score,,−4.497
same,Z score,[7],−4.497
same,Activity,[10],yes
Cl.N=c1c[n+](N2CCOCC2)[n-]o1 [3-Morpholinosydnonimine hydrochloride],Z Score,"168 h, 3 µM",−1.324
same,Z score,"168 h, 3 µM",−1.324
same,Activity,[10],no
"CCCc1c(-c2ccc(O)cc2)nn(-c2ccc(O)cc2)c1-c1ccc(O)cc1 [1,3,5-tris(4-hydroxyphenyl)-4-propyl-1H-pyrazole]",Z Score,"168 h, 3 µM",0.7717
same,Z score,"168 h, 3 µM",0.772
same,Activity,[3],no
CN(C)CCOC(=O)COc1ccc(Cl)cc1 [Centrophenoxine hydrochloride],Z Score,,−0.3302
same,Z score,[2],−0.330
same,Activity,[3],no
Cl.Fc1ccc(C(OCCCc2c[nH]cn2)c2ccc(F)cc2)cc1,Z Score,,−0.01466
NC(=O)C1=CN([C@@H]2O[C@H](COP(=O)([O-])OP(=O)([O-])OC[C@H]3O[C@@H](n4cnc5c(N)ncnc54)[C@H](OP(=O)([O-])[O-])[C@@H]3O)[C@@H](O)[C@H]2O)C=CC1.[Na+].[Na+].[Na+].[Na+] [NADPH tetrasodium],Z Score,[4],0.3021
same,Z score,[7],0.302
same,Activity,[10],no
O=C(Cc1ccc(Cl)c(Cl)c1)OCCN1CCCC1 [AC 915 oxalate],Z Score,[12],−0.8903
same,Z score,[7],−0.890
same,Activity,[8],no
